Data set [1] deals with LoVo. As to the kind of experiment: Antiproliferative activity against human LoVo cells after 48 to 72 hrs by MTT assay. Format: functional, cell-based. Background: Tetrazolium assays rely on reduction of a dye to a coloured formazan, in cell work by metabolically active cells.
Data set [2] concerns DLD-1. The data set is described as follows: Antiproliferative activity against human DLD1 cells after 48 to 72 hrs by MTT assay. Format: functional, cell-based.
Another data set has as its system ST486. The data set is described as follows: Antiproliferative activity against human ST486 cells after 48 to 72 hrs by MTT assay. It is filed as functional, cell-based.
Data set [3] relates to HUVEC. As to the kind of experiment: Antiproliferative activity against human HUVEC after 48 to 72 hrs by MTT assay. It is filed as functional, cell-based.
Data set [4] is described as follows: Antitumor activity against mouse LL/2 cells allografted in Lewis mouse assessed as decrease in lung metastasis number at 5 ug/ml, ip administered daily 24 hrs post implantation (reference value: 11.8 +/- 7.1 number). Format: functional, Lewis lung carcinoma.
Data set [5] relates to HUVEC. The data set is described as follows: Antiangiogenic activity against HUVEC assessed as inhibition of capillary tube formation at 20 uM after 24 hrs by Matrigel assay. It is filed as functional, cell-based. Conditions: Homo sapiens.
Data set [6] is described as follows: Antitumor activity against mouse LL/2 cells allografted in Lewis mouse assessed as change in tumor weight at 5 ug/ml, ip administered daily 24 hrs post implantation (reference value: 7.1 +/- 1.1 g). It is filed as functional, Lewis lung carcinoma.
For data set [7], the system named is Mus musculus. As to the kind of experiment: Toxicity in Lewis mouse allografted with mouse LL/2 cells assessed as change in body weight at 5 ug/ml, ip administered daily 24 hrs post implantation measured on day 18 (reference value: 22.7 +/- 0.2 g). It is filed as organism-based. As to conditions: in vivo.
In data set [8] the test system is HUVEC. The data set is described as follows: Antiangiogenic activity against HUVEC assessed as inhibition of capillary tube formation at 20 uM after 48 hrs by Matrigel assay. It is filed as functional, cell-based. Conditions: Homo sapiens.
Data set [9] can be described thus: Antitumor activity against mouse LL/2 cells allografted in Lewis mouse assessed as change in tumor weight at 4 mg/ml, ip administered daily 24 hrs post implantation (reference value: 7.1 +/- 1.1 g). It is filed as functional, Lewis lung carcinoma.
The subject of data set [10] is Mus musculus. The data set is described as follows: Toxicity in Lewis mouse allografted with mouse LL/2 cells assessed as change in body weight at 4 mg/ml, ip administered daily 24 hrs post implantation measured on day 18 (reference value: 22.7 +/- 0.2 g). Format: organism-based. As to conditions: in vivo.
Data set [11] can be described thus: Antitumor activity against mouse LL/2 cells allografted in Lewis mouse assessed as decrease in lung metastasis number at 4 mg/ml, ip administered daily 24 hrs post implantation (reference value: 11.8 +/- 7.1 number). It is filed as functional, Lewis lung carcinoma.
Data set [12] deals with LoVo. The data set is described as follows: Selectivity ratio of IC50 for human LoVo cells to IC50 for HUVEC. It is filed as functional.
In data set [13] the test system is DLD-1. As to the kind of experiment: Selectivity ratio of IC50 for human DLD1 cells to IC50 for HUVEC. It is filed as functional.

Calls of active or inactive are those of the source. The rule behind the calls is not given here.

With `O=C1NC(=O)c2c1c1c3ccccc3[nH]c1c1c2c2ccccc2n1CCOCCO`, the concentration for half-maximal inhibition (IC50) (commonly the concentration that inhibits the measured activity by half) with LoVo [1] stood at 4000 nM; in the data set on DLD-1 [2], 2000 nM; in the data set on ST486 it was 100 nM; in the data set with HUVEC [3], 10000 nM.
`CNCCOCCn1c2ccccc2c2c3c(c4c5ccccc5[nH]c4c21)C(=O)N(CCN(C)C)C3=O`: the 50% inhibitory concentration (IC50) stood at 6000 nM with LoVo [1], 7000 nM in the data set with DLD-1 [2], 3000 nM in the data set with ST486 and 300 nM with HUVEC [3].
For `CN(C)CCN1C(=O)c2c(c3c4ccccc4[nH]c3c3[nH]c4ccccc4c23)C1=O`, the Activity in data set [4] is given as 9.4; in data set [6], 7.3 g; in the data set on Mus musculus [7], 27.29 g. Further, the outcome in the data set on HUVEC [5] and in the data set on HUVEC [8] was Active. Also, the IC50 came to 500 nM in the data set with LoVo [1], 3000 nM with DLD-1 [2], 1000 nM in the data set on ST486 and 7000 nM with HUVEC [3].
Consider `CN(C)CCOCCn1c2ccccc2c2c3c(c4c5ccccc5[nH]c4c21)C(=O)NC3=O`, for which the IC50 in the data set with ST486 and in the data set on HUVEC [3] was 2000 nM in each case.
On to `Cc1ccc(C(=O)Nc2ccc(S(=O)(=O)O)c3cc(S(=O)(=O)O)cc(S(=O)(=O)O)c23)cc1NC(=O)c1cccc(NC(=O)Nc2cccc(C(=O)Nc3cc(C(=O)Nc4ccc(S(=O)(=O)O)c5cc(S(=O)(=O)O)cc(S(=O)(=O)O)c45)ccc3C)c2)c1` [SURAMIN], for which the figures for the Activity (in data set [9]; with Mus musculus [10]; in data set [11]) were 5.9 g, 25.5 g and 5, respectively.
Regarding `CN[C@@H]1C[C@H]2O[C@@](C)([C@@H]1OC)n1c3ccccc3c3c4c(c5c6ccccc6n2c5c31)C(=O)NC4` [STAUROSPORINE], inhibition in the data set on ST486 was half-maximal at 7 nM (IC50).
Regarding `CN(C)CCN1C(=O)c2c(c3c4ccccc4n(CCOCCO)c3c3[nH]c4ccccc4c23)C1=O`, the IC50 in the data set with LoVo [1] is 300 nM; with DLD-1 [2], 20000 nM; with ST486 it was 3000 nM; in the data set on HUVEC [3], 100 nM.
With `CN(C)CCOCCn1c2ccccc2c2c3c(c4c5ccccc5[nH]c4c21)C(=O)N(CCN(C)C)C3=O.Cl.Cl`, the results for the Activity (in data set [4]; in data set [6]; in the data set on Mus musculus [7]) were 9, 7.6 g and 28.5 g, respectively. Also, the result in the data set on HUVEC [5] and in the data set on HUVEC [8] was Active. Besides, the IC50 is 20000 nM in the data set on LoVo [1], 20000 nM in the data set on DLD-1 [2], 4000 nM in the data set with ST486 and 100 nM in the data set with HUVEC [3]. For the same compound, the “Ratio IC50” value in the data set with LoVo [12] and in the data set with DLD-1 [13] was 200 each time.

These data come from ChEMBL document CHEMBL1938265, “Synthesis and biological evaluation of novel indolocarbazoles with anti-angiogenic activity” (Eur J Med Chem, 2012).
